≈ marks a conversion by molar mass, not a printed value. Read-outs that look alike come from different tables or passages of the source.
Key:
[1] = system: Klebsiella pneumoniae (Kp); experiment: MIC against bacteria (nutrient agar); type: cell-based, Klebsiella pneumoniae ATCC 8308; conditions: 30° C., 48 h, read-out: Minimum Inhibitory Concentration, Kp
[2] = system: Escherichia coli (Ec); experiment: MIC against bacteria (nutrient agar); type: cell-based, Escherichia coli ATCC 11229; conditions: 30° C., 48 h, read-out: Minimum Inhibitory Concentration, Ec
[3] = system: Pencillium chrysogenum (Pc); experiment: MIC against yeast/fungi (malt yeast agar); type: cell-based, Pencillium chrysogenum ATCC 9480; conditions: 30° C., fungi read after 72 h, read-out: Minimum Inhibitory Concentration, Pc
Description: (§1) The antimicrobial activity of the compounds of the present invention is set forth as the minimum inhibitory concentration (MIC) for the active compounds and is determined for nine (9) bacteria, using nutrient agar, and seven (7) yeast and fungi, using malt yeast agar. This determination is conducted using a one percent solution of the test compound prepared in a mixture of acetone and water.
(§2) Malt yeast agar is prepared by adding 3 g yeast extract and 45 g malt agar per liter of deionized water. The specific agar is dispensed in 30 mL aliquots into 25×200 mm test tubes, capped and autoclaved for 15 minutes at 115° C.
(§3) The test tubes containing the agar are cooled in a water bath until the temperature of the agar is 48° C. Then, an appropriate amount of the one percent solution of the test compound is added (except in the controls where no compound is added) to the respective test tubes so that the final concentrations are 500, 250, 100, 50, 25, 10, 5, 2.5, 1.0 and zero parts per million of the test compound in the agar, thus having a known concentration of test compound dispersed therein. The contents of the test tubes are then transferred to respective petri plates. After drying for 24 hours, the petri plates containing nutrient agar are inoculated with bacteria and those containing malt yeast agar are inoculated with yeast and fungi.
(§4) The inoculation with the yeast and fungi is accomplished as follows. Cultures of yeast and fungi are incubated for seven days on malt yeast agar at 30° C. These cultures are used to prepare suspensions by the following procedure. A suspension of each organism is prepared by adding 10 mL of sterile saline and 10 microliters of octylphenoxy polyethoxy ethanol to the agar slant of yeast or fungi. The sterile saline/octylphenoxy polyethoxy ethanol solution is then agitated with a sterile swab to suspend the microorganism grown on the slant. Each resulting suspension is diluted into sterile saline (1 part suspension to 9 parts sterile saline). Aliquots of these dilutions are placed in individual wells of Steer's Replicator and petri plates inoculated as previously described. The petri plates are incubated at 30° C. and read after 48 hours for yeast and 72 hours for fungi.
(§5) Table I lists the bacteria, yeast and fungi used in the MIC test described above along with their respective American Type Culture Collection (ATCC) identification numbers.

[4] = system: Salmonella choleraesuis (Sc); experiment: MIC against bacteria (nutrient agar); type: cell-based, Salmonella choleraesuis ATCC 10708; conditions: Salmonella enterica, 30° C., 48 h, read-out: Minimum Inhibitory Concentration, Sc
[5] = system: Trichoderma viride (Tv); experiment: MIC against yeast/fungi (malt yeast agar); type: cell-based, Trichoderma viride ATCC 8678; conditions: 30° C., fungi read after 72 h, read-out: Minimum Inhibitory Concentration, Tv
Description: as §1, §2, §3, §4, §5

[6] = system: Bacillus subtilis (Bs); experiment: MIC against bacteria (nutrient agar); type: cell-based, Bacillus subtilis ATCC 8473; conditions: 30° C., 48 h, read-out: Minimum Inhibitory Concentration, Bs
[7] = system: Psuedomonas aeruginosa (Pa); experiment: MIC against bacteria (nutrient agar); type: cell-based, Psuedomonas aeruginosa ATCC 10145; conditions: 30° C., 48 h, read-out: Minimum Inhibitory Concentration, Pa
Description: as §1
Nutrient agar is prepared at pH 6.8, representing a neutral medium, and at pH 8.2, representing an alkaline medium. The nutrient agars are prepared by adding 23 g of nutrient agar to one-liter of deionized water. In addition, the alkaline medium is prepared by adjusting a 0.04M solution of N-[tris-(hydroxymethyl)methyl]-glycine buffered deionized water with concentrated sodium hydroxide to a pH of 8.5.
as §3
The inoculation with bacteria is accomplished by using the following procedure. Twenty-four hour-cultures of each of the bacteria are prepared by incubating the respective bacteria in tubes containing nutrient broth for 24 hours at 30° C. in a shaker. Dilutions of each of the 24 hour-cultures are made so that nine separate suspensions (one for each of the nine test bacteria) are made, each containing 10^8 colony forming units (CFU) per mL of suspension of a particular bacteria. Aliquots of 0.3 mL of each of the bacterial suspensions are used to fill the individual wells of Steer's Replicator. For each microbial suspension, 0.3 mL was used to fill three wells (i.e., three wells of 0.3 mL each) so that for the nine different bacteria, 27 wells are filled. The Steer's Replicator is then used to inoculate both the neutral and alkaline pH nutrient agar petri plates.
The inoculated petri plates are incubated at 30° C. for 48 hours and then read to determine if the test compound which is incorporated into the agar prevented growth of the respective bacteria.
as §5

[8] = system: Enterobacter aerogenes (Ea); experiment: MIC against bacteria (nutrient agar); type: cell-based, Enterobacter aerogenes ATCC 13048; conditions: Klebsiella aerogenes, 30° C., 48 h, read-out: Minimum Inhibitory Concentration, Ea
[9] = system: Saccharomyces cerevisiae (Sc); experiment: MIC against yeast/fungi (malt yeast agar); type: cell-based, Saccharomyces cerevisiae ATCC 4105; conditions: 30° C., yeast read after 48 h, read-out: Minimum Inhibitory Concentration, Sc
Description: as §1, §2, §3, §4, §5

[10] = system: Aureobasidium pullulan (Ap); experiment: MIC against yeast/fungi (malt yeast agar); type: cell-based, Aureobasidium pullulan ATCC 16622; conditions: 30° C., yeast 48 h / fungi 72 h, read-out: Minimum Inhibitory Concentration, Ap
Description: as §1, §2, §3, §4, §5

[11] = system: Aperigillus niger (An); experiment: MIC against yeast/fungi (malt yeast agar); type: cell-based, Aperigillus niger ATCC 16404; conditions: 30° C., fungi read after 72 h, read-out: Minimum Inhibitory Concentration, An
Description: as §1, §2, §3, §4, §5

[12] = system: Candida albicans (Ca); experiment: MIC against yeast/fungi (malt yeast agar); type: cell-based, Candida albicans ATCC 10231; conditions: 30° C., yeast read after 48 h, read-out: Minimum Inhibitory Concentration, Ca
Description: as §1, §2, §3, §4, §5

[13] = system: Staphylococcus aureus (Sa); experiment: MIC against bacteria (nutrient agar); type: cell-based, Staphylococcus aureus ATCC 6538; conditions: 30° C., 48 h, read-out: Minimum Inhibitory Concentration, Sa
[14] = system: marine organisms; experiment: Marine antifouling rating on test panels exposed to the marine environment
Description: Test panels are prepared from clear, rigid polyvinyl chloride film that is 0.381×10^-3 m thick and has one textured surface. The test panels are 0.1524 m by 0.1524 m squares that have 0.00635 m holes punched at corners on 0.127 m centers. A 0.102 square template, with a 0.067 m diameter hole at the center, is attached to the center of the textured surface of the test panels.
The candidate marine antifoulant compound (1.0 g) is stirred into a resinous latex binder (9.0 g). A portion of the compound/binder mixture (1.5 g) is added to the center of the test panel and uniformly spread over the circular area inside the template.
Water is added dropwise as needed to properly spread the compound/binder mixture. The template prevents the compound/binder mixture from spreading beyond the uncovered area. The test panel is allowed to sit for between 10 to 30 minutes until the edge of the spread compound/binder mixture has dried. The template is then removed. The test panel is then allowed to dry for 8 to 12 hours at room temperature.
Two test panels are prepared for each candidate marine antifoulant compound. Two control test panels are also prepared by only treating with the resinous latex binder. One test panel of each candidate marine antifoulant compound is attached over a white background to the topside of an exposure support apparatus. The second test panel is attached over a black background to the underside of the exposure support apparatus. The exposure support apparatus is placed horizontally 0.0254 m under a marine surface with the white background topside facing up. […]
After being removed from the exposure support apparatus, each test panel is inspected and rated for marine organism growth on both the treated and untreated areas of the test panel. The marine organisms present on the treated and untreated areas are noted. The presence of algae spores and bacterial slime are noted but not included in rating each test panel. The test panels are rated on a scale from 10 (representing completely free of marine organism growth) to 0 (representing completely covered with marine organism growth).
In Table IV, the marine antifouling rating values for ((4-phenyl-1,2,5-thiadiazol-3-yl)oxy)methyl ester is set forth, as well as the ratings for control panels (with no marine antifouling compound and referred to as "Control").

[15] = system: Proteus vulgaris (PV); experiment: MIC against bacteria (nutrient agar); type: cell-based, Proteus vulgaris ATCC 881; conditions: 30° C., 48 h, read-out: Minimum Inhibitory Concentration, Pv
[16] = system: Psuedomonas aeruginosa (PRD-10); experiment: MIC against bacteria (nutrient agar); type: cell-based, Psuedomonas aeruginosa ATCC 15442; conditions: 30° C., 48 h, read-out: Minimum Inhibitory Concentration, PRD
[17] = system: Fusarium oxysporum (Fo); experiment: MIC against yeast/fungi (malt yeast agar); type: cell-based, Fusarium oxysporum ATCC 48112; conditions: 30° C., fungi read after 72 h, read-out: Minimum Inhibitory Concentration, Fo
Description: as §1, §2, §3, §4, §5

[18] = 16 weeks, scale 10 (completely free of growth) to 0 (completely covered), control --

Row | Compound | MIC ([1]; pH 6.8, nutrient agar) [µg/mL] | MIC ([1]; pH 8.2, nutrient agar) [µg/mL] | MIC ([2]; pH 6.8, nutrient agar) [µg/mL] | MIC ([2]; pH 8.2, nutrient agar) [µg/mL] | MIC [3] [µg/mL] | MIC ([4]; pH 6.8, nutrient agar) [µg/mL] | MIC ([4]; pH 8.2, nutrient agar) [µg/mL] | MIC [5] [µg/mL] | MIC ([6]; pH 6.8, nutrient agar) [µg/mL] | MIC ([6]; pH 8.2, nutrient agar) [µg/mL] | MIC ([7]; pH 6.8, nutrient agar) [µg/mL] | MIC ([7]; pH 8.2, nutrient agar) [µg/mL] | MIC ([8]; pH 6.8, nutrient agar) [µg/mL] | MIC ([8]; pH 8.2, nutrient agar) [µg/mL] | MIC [9] [µg/mL] | MIC [10] [µg/mL] | MIC [11] [µg/mL] | MIC [12] [µg/mL] | MIC ([13]; pH 6.8, nutrient agar) [µg/mL] | MIC ([13]; pH 8.2, nutrient agar) [µg/mL] | also measured
1 | N#CSCOc1nsnc1-c1ccccc1 [Example I, ((4-Phenyl-1,2,5-thiadiazol-3-yl)oxy)methyl ester thiocyanic acid] | 500 (≈ 2010 µM) | 500 (≈ 2010 µM) | 500 (≈ 2010 µM) | > 500 | < 1 | 500 (≈ 2010 µM) | > 500 | 25 (≈ 100 µM) | < 10 | < 10 | > 500 | > 500 | > 500 | 500 (≈ 2010 µM) | 2.5 (≈ 10 µM) | < 1 | < 1 | 2.5 (≈ 10 µM) | 25 (≈ 100 µM) | 25 (≈ 100 µM) | Marine Antifouling Rating, Bottom Panel ([14]; 6 weeks, scale 10 (completely free of growth) to 0 (completely covered), control 0): 9; Marine Antifouling Rating, Top Panel ([14]; 6 weeks, scale 10 (completely free of marine organism growth) to 0 (completely covered), control 6): 8; Marine Antifouling Rating, Bottom Panel ([14]; 10 weeks, scale 10 (completely free of growth) to 0 (completely covered), control 0): 7; Marine Antifouling Rating, Top Panel ([14]; 10 weeks, scale 10 (completely free of growth) to 0 (completely covered), control 3): 3; Marine Antifouling Rating, Bottom Panel [14, 18]: 2; Marine Antifouling Rating, Top Panel [14, 18]: 8; MIC ([15]; pH 6.8, nutrient agar): > 500 µg/mL; MIC ([15]; pH 8.2, nutrient agar): 500 µg/mL (≈ 2010 µM); MIC ([16]; pH 6.8, nutrient agar): > 500 µg/mL; MIC ([16]; pH 8.2, nutrient agar): > 500 µg/mL; MIC [17]: 5 µg/mL (≈ 20.1 µM)
2 | N#CSCOc1nsnc1-c1cccc(Cl)c1 [II, ((4-(3-Chlorophenyl)-1,2,5-thiadiazol-3-yl)oxy)methyl ester thiocyanic acid] | 500 (≈ 1760 µM) | 500 (≈ 1760 µM) | 500 (≈ 1760 µM) | > 500 | < 1 | 500 (≈ 1760 µM) | > 500 | 500 (≈ 1760 µM) | < 10 | < 10 | > 500 | > 500 | > 500 | 500 (≈ 1760 µM) | < 1 | 2.5 (≈ 8.81 µM) | 2.5 (≈ 8.81 µM) | 5 (≈ 17.6 µM) | < 10 | < 10 | MIC ([15]; pH 6.8, nutrient agar): > 500 µg/mL; MIC ([15]; pH 8.2, nutrient agar): 500 µg/mL (≈ 1760 µM); MIC ([16]; pH 6.8, nutrient agar): > 500 µg/mL; MIC ([16]; pH 8.2, nutrient agar): > 500 µg/mL; MIC [17]: 10 µg/mL (≈ 35.2 µM)

From patent US5661165A, “((4-phenyl-1,2,5-thiadiazol-3-yl)oxy)methyl ester thiocyanic acid compounds, compositions containing them and their use as antimicrobial and marine antifouling agents” (The Dow Chemical Company, priority 1996, dated 1997)
